Key:
Assay type in all cases: functional
COLO 205 = assay: Growth inhibition of human COLO205 cells assessed as cell growth incubated for 48 hrs by sulforhodamine B assay; set-up: concentration or dose not given beside the values
CCRF-CEM = assay: Growth inhibition of human CCRF-CEM cells assessed as cell growth incubated for 48 hrs by sulforhodamine B assay; set-up: concentration or dose not given beside the values
NCI/ADR-RES = assay: Growth inhibition of human NCI/ADR-RES cells assessed as cell growth incubated for 48 hrs by sulforhodamine B assay; set-up: concentration or dose not given beside the values
NCI-H23 = assay: Growth inhibition of human NCI-H23 cells assessed as cell growth incubated for 48 hrs by sulforhodamine B assay; set-up: concentration or dose not given beside the values
SF-268 = assay: Growth inhibition of human SF268 cells assessed as cell growth incubated for 48 hrs by sulforhodamine B assay; set-up: concentration or dose not given beside the values
RXF 393 = assay: Growth inhibition of human RXF393 cells assessed as cell growth incubated for 48 hrs by sulforhodamine B assay; set-up: concentration or dose not given beside the values
SK-MEL-28 = assay: Growth inhibition of human SK-MEL-28 cells assessed as cell growth incubated for 48 hrs by sulforhodamine B assay; set-up: concentration or dose not given beside the values
OVCAR-4 = assay: Growth inhibition of human OVCAR4 cells assessed as cell growth incubated for 48 hrs by sulforhodamine B assay; set-up: concentration or dose not given beside the values
TK-10 = assay: Growth inhibition of human TK10 cells assessed as cell growth incubated for 48 hrs by sulforhodamine B assay; set-up: concentration or dose not given beside the values
HCC 2998 = assay: Growth inhibition of human HCC2998 cells assessed as cell growth incubated for 48 hrs by sulforhodamine B assay; set-up: concentration or dose not given beside the values
T47D = assay: Growth inhibition of human T47D cells assessed as cell growth incubated for 48 hrs by sulforhodamine B assay; set-up: concentration or dose not given beside the values
U-251 = assay: Growth inhibition of human U251 cells assessed as cell growth incubated for 48 hrs by sulforhodamine B assay; set-up: concentration or dose not given beside the values
SNB-19 = assay: Growth inhibition of human SNB19 cells assessed as cell growth incubated for 48 hrs by sulforhodamine B assay; set-up: concentration or dose not given beside the values
Hs-578T = assay: Growth inhibition of human Hs 578T cells assessed as cell growth incubated for 48 hrs by sulforhodamine B assay; set-up: concentration or dose not given beside the values
SK-MEL-2 = assay: Growth inhibition of human SK-MEL-2 cells assessed as cell growth incubated for 48 hrs by sulforhodamine B assay; set-up: concentration or dose not given beside the values
MDA-MB-435 = assay: Growth inhibition of human MDA-MB-435 cells assessed as cell growth incubated for 48 hrs by sulforhodamine B assay; set-up: concentration or dose not given beside the values
HT-29 = assay: Growth inhibition of human HT-29 cells assessed as cell growth incubated for 48 hrs by sulforhodamine B assay; set-up: concentration or dose not given beside the values
SN12C = assay: Growth inhibition of human SN12C cells assessed as cell growth incubated for 48 hrs by sulforhodamine B assay; set-up: concentration or dose not given beside the values
SNB-75 = assay: Growth inhibition of human SNB75 cells assessed as cell growth incubated for 48 hrs by sulforhodamine B assay; set-up: concentration or dose not given beside the values
MOLT-4 = assay: Growth inhibition of human MOLT4 cells assessed as cell growth incubated for 48 hrs by sulforhodamine B assay; set-up: concentration or dose not given beside the values
SK-MEL-5 = assay: Growth inhibition of human SK-MEL-5 cells assessed as cell growth incubated for 48 hrs by sulforhodamine B assay; set-up: concentration or dose not given beside the values
SW-620 = assay: Growth inhibition of human SW620 cells assessed as cell growth incubated for 48 hrs by sulforhodamine B assay; set-up: concentration or dose not given beside the values
786-0 = assay: Growth inhibition of human 786-0 cells assessed as cell growth incubated for 48 hrs by sulforhodamine B assay; set-up: concentration or dose not given beside the values
HOP-92 = assay: Growth inhibition of human HOP92 cells assessed as cell growth incubated for 48 hrs by sulforhodamine B assay; set-up: concentration or dose not given beside the values
SF-295 = assay: Growth inhibition of human SF295 cells assessed as cell growth incubated for 48 hrs by sulforhodamine B assay; set-up: concentration or dose not given beside the values
PC-3 = assay: Growth inhibition of human PC3 cells assessed as cell growth incubated for 48 hrs by sulforhodamine B assay; set-up: concentration or dose not given beside the values
NCI-H226 = assay: Growth inhibition of human NCI-H226 cells assessed as cell growth incubated for 48 hrs by sulforhodamine B assay; set-up: concentration or dose not given beside the values
K562 = assay: Growth inhibition of human K562 cells assessed as cell growth incubated for 48 hrs by sulforhodamine B assay; set-up: concentration or dose not given beside the values
UO-31 = assay: Growth inhibition of human UO31 cells assessed as cell growth incubated for 48 hrs by sulforhodamine B assay; set-up: concentration or dose not given beside the values
SK-OV-3 = assay: Growth inhibition of human SKOV3 cells assessed as cell growth incubated for 48 hrs by sulforhodamine B assay; set-up: concentration or dose not given beside the values
NCI-H522 = assay: Growth inhibition of human NCI-H522 cells assessed as cell growth incubated for 48 hrs by sulforhodamine B assay; set-up: concentration or dose not given beside the values
KM12 = assay: Growth inhibition of human KM12 cells assessed as cell growth incubated for 48 hrs by sulforhodamine B assay; set-up: concentration or dose not given beside the values
OVCAR-3 = assay: Growth inhibition of human OVCAR3 cells assessed as cell growth incubated for 48 hrs by sulforhodamine B assay; set-up: concentration or dose not given beside the values
OVCAR-8 = assay: Growth inhibition of human OVCAR8 cells assessed as cell growth incubated for 48 hrs by sulforhodamine B assay; set-up: concentration or dose not given beside the values
DU-145 = assay: Growth inhibition of human DU145 cells assessed as cell growth incubated for 48 hrs by sulforhodamine B assay; set-up: concentration or dose not given beside the values
HCT-116 = assay: Growth inhibition of human HCT116 cells assessed as cell growth incubated for 48 hrs by sulforhodamine B assay; set-up: concentration or dose not given beside the values
UACC-257 = assay: Growth inhibition of human UACC257 cells assessed as cell growth incubated for 48 hrs by sulforhodamine B assay; set-up: concentration or dose not given beside the values
BT-549 = assay: Growth inhibition of human BT549 cells assessed as cell growth incubated for 48 hrs by sulforhodamine B assay; set-up: concentration or dose not given beside the values
SR = assay: Growth inhibition of human SR cells assessed as cell growth incubated for 48 hrs by sulforhodamine B assay; set-up: concentration or dose not given beside the values
CAKI-1 = assay: Growth inhibition of human Caki1 cells assessed as cell growth incubated for 48 hrs by sulforhodamine B assay; set-up: concentration or dose not given beside the values
MDA-MB-468 = assay: Growth inhibition of human MDA-MB-468 cells assessed as cell growth incubated for 48 hrs by sulforhodamine B assay; set-up: concentration or dose not given beside the values
A498 = assay: Growth inhibition of human A498 cells assessed as cell growth incubated for 48 hrs by sulforhodamine B assay; set-up: concentration or dose not given beside the values
NCI-H322M = assay: Growth inhibition of human NCI-H322M cells assessed as cell growth incubated for 48 hrs by sulforhodamine B assay; set-up: scale not given: the % may be the effect or the level left
UACC-62 = assay: Growth inhibition of human UACC62 cells assessed as cell growth incubated for 48 hrs by sulforhodamine B assay; set-up: concentration or dose not given beside the values
MDA-MB-231 = assay: Growth inhibition of human MDA-MB-231 cells assessed as cell growth incubated for 48 hrs by sulforhodamine B assay; set-up: concentration or dose not given beside the values
IGROV-1 = assay: Growth inhibition of human IGROV1 cells assessed as cell growth incubated for 48 hrs by sulforhodamine B assay; set-up: scale not given: the % may be the effect or the level left
HL-60(TB) = assay: Growth inhibition of human HL-60(TB) cells assessed as cell growth incubated for 48 hrs by sulforhodamine B assay; set-up: concentration or dose not given beside the values
A549 = assay: Growth inhibition of human A549/ATCC cells assessed as cell growth incubated for 48 hrs by sulforhodamine B assay; set-up: concentration or dose not given beside the values
LOX IMVI = assay: Growth inhibition of human LOXIMVI cells assessed as cell growth incubated for 48 hrs by sulforhodamine B assay; set-up: concentration or dose not given beside the values
MCF7 = assay: Growth inhibition of human MCF7 cells assessed as cell growth incubated for 48 hrs by sulforhodamine B assay; set-up: concentration or dose not given beside the values
HOP-62 = assay: Growth inhibition of human HOP62 cells assessed as cell growth incubated for 48 hrs by sulforhodamine B assay; set-up: concentration or dose not given beside the values
Malme-3M = assay: Growth inhibition of human MALME-3M cells assessed as cell growth incubated for 48 hrs by sulforhodamine B assay; set-up: scale not given: the % may be the effect or the level left
RPMI-8226 = assay: Growth inhibition of human RPMI8226 cells assessed as cell growth incubated for 48 hrs by sulforhodamine B assay; set-up: concentration or dose not given beside the values
M14 = assay: Growth inhibition of human M14 cells assessed as cell growth incubated for 48 hrs by sulforhodamine B assay; set-up: concentration or dose not given beside the values
NCI-H460 = assay: Growth inhibition of human NCI-H460 cells assessed as cell growth incubated for 48 hrs by sulforhodamine B assay; set-up: concentration or dose not given beside the values

CC(C)(C)OC(=O)NCC1CN(C(=O)CCc2ccc3c(=O)c4sc5c(=O)c6ccccc6c(=O)c5c4c(=O)c3c2)C1
Activity (COLO 205): -97.62%
Activity (CCRF-CEM): -45.34%
Activity (NCI/ADR-RES): -12.16%
Activity (NCI-H23): -39.91%
Activity (SF-268): -39.06%
Activity (RXF 393): -48.97%
Activity (SK-MEL-28): -21.85%
Activity (OVCAR-4): -90.58%
Activity (TK-10): -8.18%
Activity (HCC 2998): -90.99%
Activity (T47D): -33.26%
Activity (U-251): -70.04%
Activity (SNB-19): -4.23%
Activity (Hs-578T): -20.36%
Activity (SK-MEL-2): -50.15%
Activity (MDA-MB-435): -97.59%
Activity (HT-29): -57.09%
Activity (SN12C): -79.71%
Activity (SNB-75): -83.64%
Activity (MOLT-4): -47.44%
Activity (SK-MEL-5): -99.11%
Activity (SW-620): -23.01%
Activity (786-0): -48.69%
Activity (HOP-92): -14.16%
Activity (SF-295): -95.8%
Activity (PC-3): 4.68%
Activity (NCI-H226): -51.46%
Activity (K562): -13.04%
Activity (UO-31): -81.64%
Activity (SK-OV-3): -34.85%
Activity (NCI-H522): -42.91%
Activity (KM12): -27.78%
Activity (OVCAR-3): -33.51%
Activity (OVCAR-8): -55.88%
Activity (DU-145): -95.53%
Activity (HCT-116): -89.29%
Activity (UACC-257): -95.5%
Activity (BT-549): -94.11%
Activity (SR): -5.83%
Activity (CAKI-1): 0.12%
Activity (MDA-MB-468): -50.83%
Activity (A498): 35.61%
Activity (NCI-H322M): -94.65%
Activity (UACC-62): -68.32%
Activity (MDA-MB-231): -12.92%
Activity (IGROV-1): -62.41%
Activity (HL-60(TB)): -44.47%
Activity (A549): -66.1%
Activity (LOX IMVI): -69.24%
Activity (MCF7): -63.33%
Activity (HOP-62): -74.88%
Activity (Malme-3M): -88.84%
Activity (RPMI-8226): -36.74%
Activity (M14): -97.99%
Activity (NCI-H460): -45.51%
